# From PubChem BioAssay AID2060882 (Molecular Pharmacology Branch, DTP, NCI, 2025)
# Test system: 898857-211-R-J1-PDC complex spheroids, growth % test/control
# Assay: Anticancer human tumor 898857-211-R-J1-PDC patient-derived melanoma cell line growth inhibition [RAS]
# Details: for IC50: curve of first compound; for viability, T/C: stronger effect = lower value
# Text: RAS pathway inhibitors in Combinations in Complex Spheroids
# A high-throughput screen of multi-cell type tumor spheroids was designed to identify active combinations of RAS pathway inhibitors and targeted small molecules. Complex spheroids include a stromal component modeled by human endothelial cells (HUVEC) and fibroblasts modeled by human mesenchymal stem cells (MSCs). The concentration ranges selected for each drug and investigational agent were based upon clinically achievable concentrations if the clinical Cmax of the agent was known.
# Compounds. The drugs and investigational agents: abemaciclib (NSC768073), cobimetinib (NSC768068), divarasib (GDC6063, NSC841802), docetaxel (NSC628503), GDC-1971 (RLY-1971, NSC841576), gemcitabine (NSC613327), inavolisib (NSC800729), ipatasertib (NSC767898), KB-0742 (NSC834161), MRTX-1133 (NSC836407), osimertinib (NSC779217), RMC-4630 (NSC839698), RMC-6236 (NSC851965), RMC-6291 (NSC852671), Ro-3306 (NSC812927), sapanisertib (NSC764658), SN-38 (NSC673596), staurosporine (NSC755774), SY5609 (NSC837396), and tovorafenib (DAY101, NSC766906), were obtained from the National Cancer Institute (NCI) Developmental Therapeutics Program Chemical Repository. The FDA-approved anticancer drug set is available from the NCI Developmental Therapeutics Program. […] The stock solutions were prepared in dimethyl sulfoxide (DMSO, Sigma-Aldrich, St. Louis, MO, cat. D2650) at 800-fold the tested concentration and stored at -70 degrees C prior to their use. All drugs and investigational agents were tested over a range starting from a high concentration at or near the clinical Cmax and decreasing in half-log increments. If the clinical Cmax for an agent had not been determined, the highest concentration tested was 10 microM.
# Cell Culture. All cells were maintained in an incubator at 37 degrees C and 5% CO2 with 95% humidity. The PDC lines were cultured according to standard operating procedures established by the NCI PDMR. All PDCs were thawed and cultured in Matrigel-coated flasks prepared with a working solution of 1X Ham's F-12 nutrient mix, without supplementation (Invitrogen, Waltham, MA, cat. 11765054), 100 U/mL penicillin-streptomycin (Invitrogen, cat. 15140122), and 2.5% Matrigel (Corning Inc., Corning, NY, cat. 354248) for the first three passages. The 362531-283-R-J2-PDC and 782815-120-R-J1-PDC lines were cultured in 6C/Colon 1B media, which includes advanced DMEM/F-12 (Thermo Fisher Scientific, cat. 12634028), 10 mM HEPES (Thermo Fisher Scientific, cat. 15630080), 1X GlutaMAX supplement (Thermo Fisher Scientific, cat. 35050061), 0.1 mg/mL primocin (InvivoGen, San Diego, CA, cat. ant-pm-2), 10% defined fetal bovine serum, heat inactivated (HyClone Laboratories Inc., Logan, UT, cat. SH30070.03HI), 50% L-WRN conditioned media (ATCC, cat. CRL-3276), 1.25 mM N-Acetyl-L-cysteine (Sigma-Aldrich, cat. A9165), 10 mM nicotinamide (Sigma-Aldrich, cat. N0636), 1X B-27 supplement (Thermo Fisher Scientific, cat. 17504044), 1X N-2 supplement (Thermo Fisher Scientific, cat. 17502048), 50 ng/mL human EGF (Thermo Fisher Scientific, cat. PHG0311), and 10 microM Y-27632 dihydrochloride (Tocris Bioscience, cat. 1254). The K12877-001-R-J1-PDC line was cultured in 6I media, which includes all 6C/Colon 1B media plus 10 ng/mL human FGF-10 (PeproTech, cat. 100-26), 1 ng/mL human FGF-2 (PeproTech, cat. 100-18B), 1 µM prostaglandin E2 (Tocris Bioscience, cat. 2296), […] hydrocortisone (Sigma-Aldrich, cat. H4001), and […] bovine insulin (Sigma-Aldrich, cat. I6634). The K86415-001-R-J1-PDC line was cultured in 6D media, which includes all 6C/Colon 1B media components minus the L-WRN conditioned media. The 485176-168-R4-J1-PDC was cultured in PANC media, which includes all 6C/Colon 1B media plus 100 ng/mL human FGF-10 (PeproTech, cat. 100-26), 500 nM SB-431542 (Selleckchem, cat. S1067), and 10 nM gastrin (Tocris Bioscience, cat. 3006). […]
# [1] = second compound 0.0316 µM, first compound 0.0316 µM
# [2] = second compound 0.0316 µM, first compound 0.1 µM
# [3] = second compound 0.0316 µM, first compound 0.316 µM
# [4] = second compound 0.0316 µM, first compound 1 µM
# [5] = second compound 0.1 µM, first compound 0.0316 µM
# [6] = second compound 0.1 µM, first compound 0.1 µM
# [7] = second compound 0.1 µM, first compound 0.316 µM
# [8] = second compound 0.1 µM, first compound 1 µM
# [9] = second compound 0.316 µM, first compound 0.0316 µM
# [10] = second compound 0.316 µM, first compound 0.1 µM
# [11] = second compound 0.316 µM, first compound 0.316 µM
# [12] = second compound 0.316 µM, first compound 1 µM
# [13] = second compound 1 µM, first compound 0.0316 µM
# [14] = second compound 1 µM, first compound 0.1 µM
# [15] = second compound 1 µM, first compound 0.316 µM
# [16] = second compound 1 µM, first compound 1 µM
# [17] = second compound 3.16 µM, first compound 0.0316 µM
# [18] = second compound 3.16 µM, first compound 0.1 µM
# [19] = second compound 3.16 µM, first compound 0.316 µM
# [20] = second compound 3.16 µM, first compound 1 µM
# [21] = second compound 10 µM, first compound 0.0316 µM
# [22] = second compound 10 µM, first compound 0.1 µM
# [23] = second compound 10 µM, first compound 0.316 µM
# [24] = second compound 10 µM, first compound 1 µM
# 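Further: spheroids exposed to compound for seven days before readout.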
# 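Wherever viability, T/C is given: 100% = DMSO vehicle control wells.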
compound,measurement,setting,value
CCN1CCN(Cc2ccc(Nc3ncc(F)c(-c4cc(F)c5nc(C)n(C(C)C)c5c4)n3)nc2)CC1 + C#Cc1c(F)ccc2cc(O)cc(-c3ncc4c(N5CC6CCC(C5)N6)nc(OCC56CCCN5CC(F)C6)nc4c3F)c12,IC50,second compound 0.0316 µM,269 nM
same,IC50,second compound 0.1 µM,256 nM
same,IC50,second compound 0.316 µM,235 nM
same,IC50,second compound 1 µM,298 nM
same,IC50,second compound 3.16 µM,196 nM
same,IC50,second compound 10 µM,6.16 nM
same,"viability, T/C","second compound 0.0316 µM, first compound 0.00316 µM",98.6%
same,"viability, T/C","second compound 0.0316 µM, first compound 0.01 µM",87.4%
same,"viability, T/C",[1],91.9%
same,"viability, T/C",[2],74.3%
same,"viability, T/C",[3],46%
same,"viability, T/C",[4],37.5%
same,"viability, T/C","second compound 0.1 µM, first compound 0.00316 µM",101%
same,"viability, T/C","second compound 0.1 µM, first compound 0.01 µM",92.6%
same,"viability, T/C",[5],96.6%
same,"viability, T/C",[6],75.2%
same,"viability, T/C",[7],44.4%
same,"viability, T/C",[8],42.1%
same,"viability, T/C","second compound 0.316 µM, first compound 0.00316 µM",112%
same,"viability, T/C","second compound 0.316 µM, first compound 0.01 µM",99.5%
same,"viability, T/C",[9],96%
same,"viability, T/C",[10],65.4%
same,"viability, T/C",[11],44.9%
same,"viability, T/C",[12],32.2%
same,"viability, T/C","second compound 1 µM, first compound 0.00316 µM",93%
same,"viability, T/C","second compound 1 µM, first compound 0.01 µM",101%
same,"viability, T/C",[13],96.5%
same,"viability, T/C",[14],72.1%
same,"viability, T/C",[15],51.2%
same,"viability, T/C",[16],38.2%
same,"viability, T/C","second compound 3.16 µM, first compound 0.00316 µM",107%
same,"viability, T/C","second compound 3.16 µM, first compound 0.01 µM",92.3%
same,"viability, T/C",[17],91.2%
same,"viability, T/C",[18],56.5%
same,"viability, T/C",[19],45.9%
same,"viability, T/C",[20],33.6%
same,"viability, T/C","second compound 10 µM, first compound 0.00316 µM",56.4%
same,"viability, T/C","second compound 10 µM, first compound 0.01 µM",45.8%
same,"viability, T/C",[21],32.5%
same,"viability, T/C",[22],21.5%
same,"viability, T/C",[23],11.3%
same,"viability, T/C",[24],2.36%
C[C@@H](NC(=O)c1ncnc(N)c1Cl)c1ncc(C(=O)Nc2cc(C(F)(F)F)c(Cl)cn2)s1 + C#Cc1c(F)ccc2cc(O)cc(-c3ncc4c(N5CC6CCC(C5)N6)nc(OCC56CCCN5CC(F)C6)nc4c3F)c12,IC50,second compound 0.0316 µM,6700 nM
same,IC50,second compound 0.1 µM,5980 nM
same,IC50,second compound 0.316 µM,6760 nM
same,IC50,second compound 1 µM,6540 nM
same,IC50,second compound 3.16 µM,5020 nM
same,IC50,second compound 10 µM,358 nM
same,"viability, T/C",[1],140%
same,"viability, T/C",[2],112%
same,"viability, T/C",[3],104%
same,"viability, T/C",[4],88.3%
same,"viability, T/C","second compound 0.0316 µM, first compound 3.16 µM",63%
same,"viability, T/C","second compound 0.0316 µM, first compound 10 µM",41.3%
same,"viability, T/C",[5],124%
same,"viability, T/C",[6],126%
same,"viability, T/C",[7],99.4%
same,"viability, T/C",[8],88.3%
same,"viability, T/C","second compound 0.1 µM, first compound 3.16 µM",65.8%
same,"viability, T/C","second compound 0.1 µM, first compound 10 µM",37.7%
same,"viability, T/C",[9],121%
same,"viability, T/C",[10],125%
same,"viability, T/C",[11],113%
same,"viability, T/C",[12],89.3%
same,"viability, T/C","second compound 0.316 µM, first compound 3.16 µM",66.3%
same,"viability, T/C","second compound 0.316 µM, first compound 10 µM",42%
same,"viability, T/C",[13],126%
same,"viability, T/C",[14],122%
same,"viability, T/C",[15],115%
same,"viability, T/C",[16],97.3%
same,"viability, T/C","second compound 1 µM, first compound 3.16 µM",63.4%
same,"viability, T/C","second compound 1 µM, first compound 10 µM",42%
same,"viability, T/C",[17],127%
same,"viability, T/C",[18],126%
same,"viability, T/C",[19],108%
same,"viability, T/C",[20],86.5%
same,"viability, T/C","second compound 3.16 µM, first compound 3.16 µM",64.1%
same,"viability, T/C","second compound 3.16 µM, first compound 10 µM",31.5%
same,"viability, T/C",[21],77.3%
same,"viability, T/C",[22],70.7%
same,"viability, T/C",[23],47.3%
same,"viability, T/C",[24],38.5%
same,"viability, T/C","second compound 10 µM, first compound 3.16 µM",27.4%
same,"viability, T/C","second compound 10 µM, first compound 10 µM",19%
